By Ki is commonly meant a dissociation constant, usually derived from enzyme kinetics or from competition with a known ligand.

Structures are written as SMILES. Counter-ions that a name gives are not always drawn. Like-named read-outs stand apart in the source and are kept apart here.

From patent US20050209278A1, “Piperidinyl- and piperazinyl-sulfonylmethyl hydroxamic acids and their use as protease inhibitors” (priority 2002, published 2005) come the findings set out here.

Test [1] has as its target T1, MMP-2 (Homo sapiens, UniProt P08253).
T1 construct: made in house; host or cells: MMP-2-transfected p2AHT2 cells
T1 sequence (P08253 110-660): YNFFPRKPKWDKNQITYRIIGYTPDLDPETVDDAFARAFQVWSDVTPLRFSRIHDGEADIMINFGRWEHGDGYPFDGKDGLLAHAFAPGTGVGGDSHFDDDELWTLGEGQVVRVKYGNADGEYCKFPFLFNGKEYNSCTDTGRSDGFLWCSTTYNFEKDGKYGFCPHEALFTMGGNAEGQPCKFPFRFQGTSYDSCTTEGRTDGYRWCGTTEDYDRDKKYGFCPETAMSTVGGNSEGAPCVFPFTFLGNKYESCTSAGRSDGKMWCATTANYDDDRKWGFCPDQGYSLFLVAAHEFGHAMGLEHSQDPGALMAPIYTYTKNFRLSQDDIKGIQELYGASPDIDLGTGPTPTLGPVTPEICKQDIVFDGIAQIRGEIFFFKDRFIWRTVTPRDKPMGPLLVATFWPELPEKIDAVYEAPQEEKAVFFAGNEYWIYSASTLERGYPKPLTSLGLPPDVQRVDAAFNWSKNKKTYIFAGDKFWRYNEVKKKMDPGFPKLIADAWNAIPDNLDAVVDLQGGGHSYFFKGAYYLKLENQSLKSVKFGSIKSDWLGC
Briefly: In vitro MMP inhibition, Ki determination (fluorogenic substrate II). Format: biochemical. Here is the method:
(§1) Several hydroxamic acids and salts thereof were analyzed in in vitro assays to determine their ability to inhibit the MMP cleavage of peptide substrates. […] and IC50 constants were calculated from the assayed hydroxamic acid-MMP interactions.
(§2) Human recombinant MMP-1, MMP-2, MMP-9, MMP-13, and MMP-14 were used in this assay. All enzymes were prepared in Assignee's laboratories following usual laboratory procedures. Protocols for the preparation and use of these enzymes are available in the scientific literature. See, e.g., Enzyme Nomenclature (Academic Press, San Diego, Calif., 1992) (and the citations therein). See also, Freije et al., “Molecular cloning and expression of collagenase-3, a novel human matrix metalloproteinase produced by breast carcinomas,” J Biol. Chem., 269(24), 16766-16773 (1994).
The MMP-2 proenzyme was purified by gelatin Sepharose chromatography from MMP-2-transfected p2AHT2 cells provided by Dr. Gregory Goldberg of Washington University (St. Louis, Mo.).
(§3) All MMPs were activated using 4-aminophenylmercuric acetate (“APMA”, Sigma Chemical, St. Louis, Mo.) or trypsin. MMP-9 also was activated using human recombinant MMP-3 (purified in Assignee's laboratory following standard cloning and purification techniques).
(§4) Two fluorogenic, methoxycoumarin-containing polypeptide substrates were used in the MMP inhibition assays: [drawing 427] Here, “Dpa” is 3-(2,4-dinitrophenyl)-L-2,3-diaminopropionyl group, and “MCA” is 7-methoxycoumarin-4-yl acetyl. Substrate (I) was purchased from Baychem (Redwood City, Calif.), and substrate II was prepared Assignee's laboratory. Substrate I was used in the IC50 determination assays, while substrate II was used in the Ki determination assays. In the absence of MMP inhibitory activity, either substrate is cleaved at the Gly-Leu peptide bond. This cleavage separates the highly fluorogenic peptide from the 2,4-dinitrophenyl quencher, thus resulting in increase of fluorescent intensity.
(§5) The stock solutions of the assayed hydroxamic acids (or salts thereof) were prepared in 1% dimethyl sulfoxide (DMSO). These stock solutions were diluted in Buffer A (100 mM Tris-HCl, 100 mM NaCl, 10 mM CaCl2, 0.05% polyoxyethylene 23 lauryl ether, pH 7.5) to obtain solutions with different hydroxamic acid concentrations, i.e., assay solutions with different concentrations of the assayed MMP inhibitory compound. The experiment controls contained the same amount of Buffer A/DMSO as the assayed sample, but contained no hydroxamic acid (or salt thereof).
The assays from which the Ki determinations were made were performed as follows. The assayed hydroxamic acid samples were incubated in separate wells of untreated white polystyrene plates (Nunc Nalgene International, Rochester, N.Y.), and analyzed on a Tecan SpectraFlour Plus plate reader. The excitation wavelength was 330 nm, and the emission wavelength—420 nm. All samples (assayed hydroxamic acids and controls) were incubated in separate plate wells at room temperature for 1 hr in the presence of 4 μM of MMP substrate (II). In the absence of MMP inhibitory activity, substrate II was cleaved at the Gly-Leu bond resulting in an increase of relative fluorescence. Inhibition was observed as a reduced rate of this increase in relative fluorescence. The various hydroxamic acids were analyzed using a single low enzyme concentration with a single substrate concentration fixed at or below the Km. This protocol is a modification of method by Knight et al., FEBS Lett., 296(3), 263-266 (1992). Apparent inhibitory constants were determined by non-linear regression of reaction velocity as a function of inhibitor and enzyme concentration using Morrison's equation, as described by Kuzmic, Anal. Biochem. 286, 45-50 (2000). […] Since the substrate concentration was chosen to be at or below the Km, the apparent Ki's from this analysis were reported as Ki's without correction for the influence of substrate.

For test [2], the target named is T2, MMP-9 (Homo sapiens, UniProt P14780).
T2 construct: made in house; host or cells: MMP-9-transfected HT1080 cells (spent media)
Described as above. Type of test: biochemical. How it is done: as §1, §2
The MMP-9 proenzyme was purified by gelatin Sepharose chromatography from spent media of MMP-9-transfected HT1080 cells provided by Dr. Howard Welgus of Washington University (St. Louis, Mo.).
as §3, §4, §5
The assays from which the Ki determinations were made were performed as follows. The assayed hydroxamic acid samples were incubated in separate wells of untreated white polystyrene plates (Nunc Nalgene International, Rochester, N.Y.), and analyzed on a Tecan SpectraFlour Plus plate reader. The excitation wavelength was 330 nm, and the emission wavelength—420 nm. All samples (assayed hydroxamic acids and controls) were incubated in separate plate wells at room temperature for 1 hr in the presence of 4 μM of MMP substrate (II). In the absence of MMP inhibitory activity, substrate II was cleaved at the Gly-Leu bond resulting in an increase of relative fluorescence. Inhibition was observed as a reduced rate of this increase in relative fluorescence. The various hydroxamic acids were analyzed using a single low enzyme concentration with a single substrate concentration fixed at or below the Km. This protocol is a modification of method by Knight et al., FEBS Lett., 296(3), 263-266 (1992). Apparent inhibitory constants were determined by non-linear regression of reaction velocity as a function of inhibitor and enzyme concentration using Morrison's equation, as described by Kuzmic, Anal. Biochem. 286, 45-50 (2000). Modifications were made in the non-linear regression method to allow a common control reaction rate and effective enzyme concentration to be shared between all dose-response relationships on a given assay plate. […]

Where [3] appears, read: value not in parenthesis, read-out: MMP-2 Ki.
Setting [4] is: human recombinant enzyme, 4 μM substrate II, room temperature, 1 hr, read-out: MMP-2 Ki.
[5] abbreviates: human recombinant enzyme, 4 μM substrate II, room temperature, 1 hr.

T2 sequence (P14780 107-707 limits assumed): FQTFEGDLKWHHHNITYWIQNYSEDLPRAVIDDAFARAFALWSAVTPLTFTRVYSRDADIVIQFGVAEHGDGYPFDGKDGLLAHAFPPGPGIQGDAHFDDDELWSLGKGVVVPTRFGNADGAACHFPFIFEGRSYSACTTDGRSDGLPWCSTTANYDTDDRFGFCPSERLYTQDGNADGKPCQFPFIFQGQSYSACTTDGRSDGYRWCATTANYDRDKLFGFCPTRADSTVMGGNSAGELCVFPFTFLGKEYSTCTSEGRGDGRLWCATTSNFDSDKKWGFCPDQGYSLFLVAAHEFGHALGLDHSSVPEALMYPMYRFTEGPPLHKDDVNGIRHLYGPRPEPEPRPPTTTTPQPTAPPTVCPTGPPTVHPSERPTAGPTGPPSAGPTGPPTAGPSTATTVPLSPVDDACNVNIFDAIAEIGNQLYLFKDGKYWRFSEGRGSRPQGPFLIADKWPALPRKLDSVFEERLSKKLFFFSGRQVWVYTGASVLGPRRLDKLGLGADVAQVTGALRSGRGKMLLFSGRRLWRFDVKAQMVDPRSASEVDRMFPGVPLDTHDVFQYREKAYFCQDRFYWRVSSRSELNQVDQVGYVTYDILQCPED

On to `COCCN1CCC(C(=O)NO)(S(=O)(=O)N2CCN(c3ccc(OCC(F)(F)C(F)(F)F)cc3)CC2)CC1` [Example 144], for which the inhibition constant Ki turned out to be 0.69 nM in test [1] (setting [3]) and 2.31 nM in test [2] (value not in parenthesis).
The like results for `O=C(NO)C1(S(=O)(=O)N2CCN(c3ccc(-c4ccc(Cl)cc4)cn3)CC2)CCOCC1` [Example 60] were, in that order, 0.54 nM and 7.05 nM.
For `O=C(NO)C1(S(=O)(=O)N2CCN(c3ccc(CCC(F)(F)C(F)(F)F)cc3)CC2)CCOCC1` [Example 17, N-hydroxy-4-({4-[4-(3,3,4,4,4-pentafluorobutyl)phenyl]piperazin-1-yl}sulfonyl)tetrahydro-2H-pyran-4-carboxamide Hydrochloride], the inhibition constant (Ki) in test [1] (setting [4]) came out at 0.418 nM; in test [2] (setting [5]) it was 1.01 nM.
For `CCCCCc1ccc(N2CCN(S(=O)(=O)C3(C(=O)NO)CCN(C(=O)C(F)(F)F)CC3)CC2)cc1` [Example 21, N-hydroxy-4-{[4-(4-pentylphenyl)piperazin-1-yl]sulfonyl}-1-(trifluoroacetyl)piperidine-4-carboxamide Hydrochloride], the Ki in test [1] (setting [4]) is 3.82 nM; in test [2] (setting [5]), 8.18 nM.
In the same order, the values of `COCCN1CCC(C(=O)NO)(S(=O)(=O)N2CCN(c3ccc(OCCCC(F)(F)F)cc3)CC2)CC1` [Example 9, N-hydroxy-1-(2-methoxyethyl)-4-({4-[4-(4,4,4-trifluorobutoxy)phenyl]piperazin-1-yl}sulfonyl)piperidine-4-carboxamide Dihydrochloride] are 0.223 nM and 2.76 nM.
For the molecule `CCCCc1ccc(N2CCN(S(=O)(=O)C3(C(=O)NO)CCN(c4ccc(C)cc4)CC3)CC2)cc1` [Example 146], the Ki in test [1] (setting [3]) was found to be 6.41 nM; in test [2] (value not in parenthesis), 2.29 nM.
On to `COc1ccc(-c2cnc(N3CCN(S(=O)(=O)C4(C(=O)NO)CCOCC4)CC3)nc2)cc1` [Example 8, N-hydroxy-4-({4-[5-(4-methoxyphenyl)pyrimidin-2-yl]piperazin-1-yl}sulfonyl)tetrahydro-2H-pyran-4-carboxamide Hydrochloride], for which the Ki in test [1] (setting [4]) worked out at 1.98 nM; in test [2] (setting [5]) it was 1.65 nM.
As for `COCCN1CCC(C(=O)NO)(S(=O)(=O)N2CCC(c3ccc(OCCCC(F)(F)F)cc3)CC2)CC1` [Example 20, N-hydroxy-1-(2-methoxyethyl)-4-({4-[4-(4,4,4-trifluorobutoxy)phenyl]piperidin-1-yl}sulfonyl)piperidine-4-carboxamide Hydrochloride], the inhibition constant Ki in test [1] (setting [4]) is 0.83 nM; in test [2] (setting [5]), 3.86 nM.
`CCCCOc1ccc(N2CCN(S(=O)(=O)C3(C(=O)NO)CCN(c4ccc(C)nc4)CC3)CC2)cc1` [Example 131]: the Ki in test [1] (setting [3]) came to 1.39 nM; in test [2] (value not in parenthesis), 3.03 nM.
Consider `O=C(NO)C1(S(=O)(=O)N2CCN(c3ccc(COCC(F)(F)C(F)(F)C(F)(F)C(F)F)cc3)CC2)CCOCC1` [Example 68], for which the Ki in test [1] (MMP-2 Ki, value not in parenthesis) was 4.69 nM; in test [2] (value not in parenthesis) it was 208 nM.
Take `O=C(NO)C1(S(=O)(=O)N2CCN(c3ccc(OC(F)(F)C(F)F)cc3)CC2)CCOCC1` [Example 4, 4-({4-[4-(1,1,2,2-tetrafluoroethoxy)phenyl]piperazinyl}sulfonyl)perhydro-2H-pyran-4-carbohydroxamic Acid]: the Ki was 0.104 nM in test [1] (setting [4]) and 0.739 nM in test [2] (setting [5]).
Regarding `COCCN1CCC(C(=O)NO)(S(=O)(=O)N2CCN(c3ccc(OCC(F)(F)F)cc3)CC2)CC1` [Example 119], the results for the inhibition constant Ki in test [1] (setting [3]) and in test [2] (value not in parenthesis) were 1.19 nM and 1.35 nM, respectively.
The like results for `CCCCOc1ccc(N2CCN(S(=O)(=O)C3(C(=O)NO)CCN(c4ccc(OCCOC)nn4)CC3)CC2)cc1` [Example 129] were, in that order, 0.508 nM and 1.2 nM.
In the same order, the values of `O=C(NO)C1(S(=O)(=O)N2CCN(c3ccc(OCCCC(F)(F)F)cc3F)CC2)CCOCC1` [Example 117] are 2.58 nM and 27.7 nM.
Consider `CCCCOc1ccc(C2CCN(S(=O)(=O)C3(C(=O)NO)CCN(CCOC)CC3)CC2)cc1` [Example 16, 4-{[4-(4-butoxyphenyl)piperidin-1-yl]sulfonyl}-N-hydroxy-1-(2-methoxyethyl)piperidine-4-carboxamide Hydrochloride], for which the Ki in test [1] (setting [4]) came out at 1.24 nM; in test [2] (setting [5]) it was 0.47 nM.
With `COc1ccc(N2CCN(S(=O)(=O)C3(C(=O)NO)CCOCC3)CC2)nc1` [Example 109], the Ki in test [1] (setting [3]) was found to be 477 nM; in test [2] (value not in parenthesis), 447 nM.
The like results for `COc1ccc(N2CCN(S(=O)(=O)C3(C(=O)NO)CCOCC3)CC2)nc1` [Example 108] were, in that order, 431 nM and 401 nM.
For `CCCCOc1ccc(N2CCN(S(=O)(=O)C3(C(=O)NO)CCN(c4ccccn4)CC3)CC2)cc1` [Example 149], the inhibition constant (Ki) turned out to be 1.89 nM in test [1] (setting [3]) and 5.87 nM in test [2] (value not in parenthesis).
For `CCCCCCCCC1CCN(S(=O)(=O)C2(C(=O)NO)CCOCC2)CC1` [Example 26, 4-(4-octyl-piperidine-1-sulfonyl)-tetrahydro-pyran-4-carboxylic Acid Hydroxyamide], the figures for the Ki in test [1] (setting [4]) and in test [2] (setting [5]) were 0.78 nM and 0.33 nM, respectively.
As to `CCCCOc1ccc(N2CCN(S(=O)(=O)C3(C(=O)NO)CCN(c4nccc(C(F)(F)F)n4)CC3)CC2)cc1` [Example 130], the Ki in test [1] (setting [3]) stood at 5.23 nM; in test [2] (value not in parenthesis), 23.2 nM.
The like results for `CCCCOc1ccc(N2CCN(S(=O)(=O)C3(C(=O)NO)CCN(c4cc(C)ccn4)CC3)CC2)cc1` [Example 139] were, in that order, 2.18 nM and 7.45 nM.
Regarding `CCCCOc1ccc(N2CCN(S(=O)(=O)C3(C(=O)NO)CCN(c4cccnc4)CC3)CC2)cc1` [Example 154], the Ki stood at 1.07 nM in test [1] (setting [3]) and 2.15 nM in test [2] (value not in parenthesis).
